These results are taken from article PMC4879371, “Antitrypanosomal Activities and Mechanisms of Action of Novel Tetracyclic Iridoids from Morinda lucida Benth” (Antimicrobial Agents and Chemotherapy, 2016).

Entries after “also recorded” stand apart in the source; their conditions may differ.

One may read the IC50 as the point on the concentration scale where inhibition reaches its midpoint. A higher IC50 goes with weaker potency in that assay.

Series [1] can be described thus: MTT cytotoxicity assay, HF-19. Format: cell-based, human. The following applies: human, HF-19 lung fibroblast cells; HF-19 normal lung fibroblast, 48 h. As to the method: (§1) The cytotoxicity of the compounds to mammalian cells were determined using four human normal cell lines, namely, NB1RGB (skin fibroblast) and HF-19 (lung fibroblast) obtained from the RIKEN Bio Resource Center Cell Bank (Japan) and Chang Liver and Hs888Lu (lung) obtained from the European Collection of Authenticated Cell Cultures (ECACC). NB1RGB and HF-19 were maintained in minimum essential medium-α (MEM-α). Chang Liver and Hs888Lu were grown in Eagle's minimum essential medium (EMEM) and RPMI 1640, respectively. All of these media were supplemented with 10% fetal bovine serum (FBS) and 1% penicillin-streptomycin and were then incubated at 37°C under 5% CO2 in fully humidified conditions.
(§2) Cytotoxicity was determined using a 3-(4,5-dimethylthiazol-2-yl)-2,5-diphenyltetrazolium bromide (MTT) assay. The cells were treated with molucidin, ML-2-3, or ML-F52 at concentrations of ≤50 μM for 48 h. Cells were plated at a density of 0.5 × 10^4 cells/well into 96-well plates. After 24 h of incubation, cells were treated with various concentrations of each of the purified compounds for 48 h. Then, MTT solution was added to each well, and the cells were incubated for another 4 h. The precipitated MTT-formazan product was dissolved in 0.04 N HCl-isopropanol, and the amount of formazan was measured at a wavelength of 595 nm by a microplate reader (Immuno Mini NJ-2300; Nihon InterMed, Tokyo, Japan). Cytotoxicity was calculated as the percentage of live cells relative to the control culture. The selectivity index (SI) was expressed as the ratio of the IC50 obtained for mammalian cells and the IC50 for trypanosomes.

The subject of series [2] is HF-19 (lung fibroblast). Description: MTT cytotoxicity assay, HF-19. It counts as cell-based, human. The conditions noted are these: IC50 HF-19 / IC50 trypanosomes. As to the method:
as §1, §2
Background: Tetrazolium assays rely on reduction of a dye to a coloured formazan, in cell work by metabolically active cells.

The nature of series [3]: MTT cytotoxicity assay, NB1RGB. Format: cell-based, human. The following applies: human, NB1RGB skin fibroblast cells; NB1RGB normal skin fibroblast, 48 h. The method, then: as §1, §2
Series [4] deals with NB1RGB (skin fibroblast). Description: MTT cytotoxicity assay, NB1RGB. Format: cell-based, human. The conditions noted are these: IC50 NB1RGB / IC50 trypanosomes. The method, then: as §1, §2
Series [5] relates to T. brucei brucei (TC-221 strain). Format: in vivo. The following applies: for survival of mice / death, days postinfection: vehicle control died at day 9. As to the method: Six-week-old BALB/c female mice with an average weight of 20 g were infected with 1 × 10^3 cells of T. brucei brucei (TC-221 strain) and were randomly grouped into four cages containing five mice each. The first 3 groups were treated with 30 mg/kg of body weight of molucidin, ML-2-3, and ML-F52, respectively, 6 h postinfection and continued daily afterward for 5 consecutive days. The last group received physiological saline containing <0.1% of DMSO as a vehicle control. Parasitemia and weight were monitored daily until 20 days postinfection. The experiments were conducted in compliance with the internationally accepted principles for laboratory animal use and care as contained in the Canadian Council on Animal Care guidelines on animal use protocol review.

Series [6] relates to Plasmodium falciparum. Nature of the series: Preliminary in vitro anti-Plasmodium activity. Format: cell-based. The following applies: preliminary studies, unpublished data.
A short description of series [7]: MTT cytotoxicity assay, Hs888Lu. Format: cell-based, human. The conditions noted are these: human, Hs888Lu lung cells; Hs888Lu normal lung, 48 h. The method, then: as §1, §2
Series [8] has as its system Hs888Lu (lung). Description: MTT cytotoxicity assay, Hs888Lu. Format: cell-based, human. The conditions noted are these: IC50 Hs888Lu / IC50 trypanosomes. The method, then:
as §1, §2

For series [9], the system named is paraflagellum rod protein subunit 2, PFR-2. Nature of the series: PFR-2 expression, immunohistochemistry and Western blotting with anti-PFR-2 antibody. The following applies: for expression of PFR-2 protein: 24 h, 5 μM molucidin, 15 μM ML-2-3, 0.43 μM ML-F52. It counts as cell-based, Trypanosoma brucei brucei. The method, then:
To investigate the effect of the compounds on parasite morphology and their flagellum function, immunohistochemistry using anti-paraflagellum rod protein anti-PFR-2 antibody ([37]), was performed with molucidin-, ML-2-3-, and ML-F52-treated trypanosome parasites. […] Parasites were then harvested after incubation with or without appropriate concentrations of compounds and were fixed with 4% paraformaldehyde in 8-well chamber slides at room temperature for 5 min. Washing steps were carried out with 500 μl of phosphate-buffered saline (PBS) twice and 0.1% Triton X-100 in PBS (PBST) at room temperature for 5 min each. Blocking reagent (500 μl; 3% bovine serum albumin [BSA] in PBS) was added and incubated for 30 min at room temperature. Primary and secondary antibody incubation with parasites was done for 1 h each, and 4′,6-diamidino-2-phenylindole (DAPI) (5 μg/ml DAPI in PBS) staining was done for 10 min. After the washing steps presented above, the slides were mounted using PermaFluor mounting reagent and were covered with coverslips. The slides were observed under an Olympus fluorescence microscope (Olympus BX53) to detect any phenotypic changes in T. brucei brucei parasites.
Trypanosome parasites were incubated with or without compound in vitro and were lysed with 0.5% NP-40 ([38]). Protein concentration of the lysate was determined using the Bio-Rad protein assay reagents (Bio-Rad, USA). SDS-PAGE was run using Invitrogen NuPAGE 12% Bis-Tris gel. The proteins were blotted on a polyvinylidene difluoride (PVDF) membrane (Immobilon P; Millipore, USA), added with mouse anti-PFR-2 antibody, 1:500 dilution, and incubated at 4°C overnight. The membrane was then incubated with anti-mouse horseradish peroxidase (HRP) antibodies, 1:2,000 dilution, for an hour at room temperature. Chemiluminescence HRP substrates A and B (Immobilon Western; Millipore, USA) were added to the membrane in a ratio of 1:1. Detection was done using the ATTO cooled charge-coupled device (CCD) camera system EzCapture II (ATTO Corporation, Japan).
To investigate the sequence in which the events (apoptosis induction, PFR-2 suppression, and cell cycle alteration) involved in mechanisms of action occur, we examined the time course for the three events using ML-2-3-treated parasites. Trypanosoma brucei parasites were incubated for 0, 0.5, 1.5, 3, 6, and 24 h with 15 μM ML-2-3 and were then subjected to both Nexin assay and Western blot analyses using the PFR-2 antibody. We further investigated the time course of cell cycle alteration using ML-2-3-treated parasites at similar concentrations and incubation periods.

Series [10] can be described thus: MTT cytotoxicity assay, Chang Liver. Format: cell-based, human. The following applies: human, Chang Liver cells; Chang liver normal liver, 48 h. As to the method: as §1, §2
Series [11] has as its system Chang Liver. Description: MTT cytotoxicity assay, Chang Liver. It counts as cell-based, human. The following applies: IC50 Chang liver / IC50 trypanosomes. The method, then: as §1, §2
[12] abbreviates: 30 mg/kg intraperitoneally, 5 consecutive days.

Turning to `COc1cc(/C=C2/C(=O)O[C@]34C=C[C@@H]5C(C(=O)O)=CO[C@H](O[C@@H]23)[C@@H]54)ccc1O` [ML-2-3], the IC50 at 48 h in series [1], in series [3], in series [7] and in series [10] was more than 50 µM each time. In addition, the “SI (selectivity index)” value in series [2], in series [4], in [8] and in series [11] was more than 13.33 throughout. For the same compound, the “survival of mice / death, days postinfection” value in [5] (setting [12]) turned out to be 9 days. Also, the “anti-Plasmodium activity in vitro” value in series [6] is on record as “anti-Plasmodium activities”. Moreover, the “time of exposure to significant suppression of PFR-2 protein expression” value in series [9] (15 μM ML-2-3, time course Western blot) is given as not above 0.5 h. In addition, in [9], the “expression of PFR-2 protein” value is “suppression of PFR-2 expression; also recorded: suppressed the expression of PFR-2 proteins”.
On to `COC(=O)C1=CO[C@@H]2O[C@H]3/C(=C\c4ccc(O)c(OC)c4)C(=O)O[C@]34C=C[C@H]1[C@H]24` [molucidin], for which the IC50 at 48 h in [1] is 14.2 µM; in series [3], 7.11 µM; in series [7] it was 9.29 µM; in series [10] it was 9.34 µM. For the same compound, the “SI (selectivity index)” value turned out to be 11.21 in series [2], 5.60 in [4], 7.31 in series [8] and 7.35 in series [11]. In addition, the toxicity in mice result in series [5] (mouse, in vivo) was “severe toxicity”. For the same compound, the “anti-Plasmodium activity in vitro” value in [6] was “anti-Plasmodium activities”. Besides, in [9], the “expression of PFR-2 protein” value is given as “significant expression of PFR-2”.
Take `CCOC(=O)C1=CO[C@@H]2O[C@H]3/C(=C\c4ccc(O)c(OC)c4)C(=O)O[C@]34C=C[C@H]1[C@H]24` [ML-F52]: the IC50 at 48 h in [1] is 10.9 µM; in series [3], 4.74 µM; in series [7], 8.89 µM; in series [10] it was 18.1 µM. Further, the “SI (selectivity index)” value in series [2] amounted to 25.44; in [4] it was 11.02; in [8], 20.67; in series [11], 42.16. Also, the “cure for 20 days postinfection” value in series [5] (setting [12]) is reported as 100%. Also, the “survival of mice / death, days postinfection” value in series [5] (setting [12]) stood at 20 days. Also, in [6], the “anti-Plasmodium activity in vitro” value is on record as “anti-Plasmodium activities”. In [9], the “expression of PFR-2 protein” value is recorded as “suppression of PFR-2 expression; also recorded: suppressed the expression of PFR-2 proteins”.
